The source of these data is patent US20100021555A1, “Compositions containing high omega-3 and low saturated fatty acid levels” (priority 2004, published 2010).

Series [1] relates to dairy cows. To be noted: cited from earlier work.
The subject of series [2] is rumen microorganisms. To be noted: in vitro; cited from earlier work.
The test system of series [3] is bovine hepatocytes. As to conditions: bovine hepatocytes supplemented in vitro; cited from earlier work.
For series [4], the system named is lactating dairy cows. Nature of the series: Pilot supplementation study in lactating dairy cows: milk fatty acids by GC. It is filed as in vivo, Friesian dairy cows. The source says:
(§1) Ethical approval was obtained from the University of Auckland Animal Ethics Committee to undertake an pilot supplementation study. The study involved supplementing the diets of four Friesian dairy cows with single daily dose of 40 and 160 of ethyl-eicospaentaenoic acid (>98% purity) for nine days. Cows were divided into a high-to-low dose (HTLD) group (n=2) with animals supplemented with 160 grams of EPA at day one with the dose decreasing by 15 grams each day to reach 40 grams at day nine and a low-to-high dose (LTHD) group (n=2) with animals supplemented with 40 grams on day one the dose increasing by 15 grams each day to reach 160 grams at day nine. Feeding and milk sampling was undertaken between 19 and 29 August 2004 at a dairy farm in West Aucldand under the supervision of a supervising veterinarian with experience in caring for the herd. Supplements were given by drenching gun once daily in the morning subsequent to milking. Prior to supplementation each day duplicate 50 ml samples of milk were collected from each animal and stored in 100 ml polyethylene containers in a temperature controlled minus 20 deg C. freezer within one hour of collection. Milk samples were thawed and fatty acids extracted and prepared for analysis. Milkfat was methylated by dissolving in hexane and reaction with 2 molar KOH methanol. 20 milligrams of fat dissolved in 2 mls in N-Hexane then 20 micro-litres of 2 molar KOH methanol was added left to stand for 3 seconds and vortexed vigorously for 30 seconds. The mixture was then allowed to stand for 6 minutes before being neutralized to methyl red with 2 molar HCl in water before being vortexed again and centrifuged (modified method from agilent website also reported in Terry Knight publications) Knight T. W., et al., New Zealand Journal Of Agricultural Research 47:3,: 287-297 SEP (2004). An aliquot of hexane was then taken and analysed by GCFID 6890 (Agilent Corp) with 105 meter 0.25 mm RTX2330 90% bis cyanoprofile column (Restek) and 0.25 micron film thickness. Fatty acids were identified by retention time in comparison with a 37-component mixture (Suplco). Peak areas were corrected for peak response using theoretical response factors (AOCS reference). Results were reported as area under curve.
A permutation based method of statistical analysis was used to assess FA baseline composition with reference to a reference baseline derived from population of four thousand one hundred NZ Fresian dairy cows. Each fatty acid peak measured in the feeding trial was logged (log base 2), and had the day 0 (baseline) measurement subtracted to report a change from baseline at each time point. Significance of the changes in four-cow and two-cow means was tested by randomly selecting many groups of two or four cows from the herd of 4100 animal reference dataset and comparing the feeding trial results against the mean of logged measurements from the larger reference population. This produced baseline distributions for each group size which were centered at zero to match the baseline centered means from the animals in the feeding trial. Significance thresholds were then adjusted for the number of fatty acid peaks being investigated, and the number of measurements taken.

For series [5], the system named is delta-9-desaturase. Nature of the series: Milkfat substrate/product ratios (SFA : monounsaturated counterpart), proxy for delta-9-desaturase activity. The format is in vivo, Friesian dairy cows. To be noted: for C:18:C18:1 ratio in milkfat: baseline 0.49; for C:10:C10:1 ratio in milkfat: baseline 12.66; for C:14:C14:1 ratio in milkfat: baseline 14.93; for C:16:C16:1 ratio in milkfat: baseline 17.40.
Excerpt: as §1
Saturated Fatty Acids: A reduction in dietary amounts of certain saturated fatty acids (SFAs), including in particular the major milk fatty acid C16:0, a has been recommended by health experts (WHO Technical Report Series 916, WHO Geneva (2003)). Under normal circumstances about 50% of dietary C16:0 is taken up by the mammary gland. […] This decrease in milkfat C16:0 is unlikely to be explained by altered feeding behavior during the study given corresponding changes were not observed in other SFAs. In order to investigate the contribution of further metabolism of C16:0 in the mammary gland to palmitoleic acid (C16:1) we compared substrate/product ratios in milkfat for a number of SFAs and their monounsaturated fatty acid counterparts. These ratios are considered to be a proxy measure for the activity of the delta-9-desaturase activity enzyme. (see Table 1 below).

For the compound `CC/C=C\C/C=C\C/C=C\CCCCCCCC(=O)O` [ALA, alpha linolenic acid], the EPA in milkfat result in series [1] (duodenal infusion of 500 grams per day of ALA) is reported as “no concomitant increase”. In addition, the “level of ALA in milkfat” value in series [1] (duodenal infusion of 500 grams per day) was 14%.

Turning to `CC/C=C\C/C=C\C/C=C\C/C=C\C/C=C\CCCC(=O)O` [EPA, 5,8,11,14,17,-eicosapentaenoic acid (20:5n-3)], in series [2], the “biohydrogenation of linoleic (LA C18:2) and alpha-linolenic (ALA C18:3) acid” value was “inhibition”. Moreover, the “oxidation of C16:0” value in series [3] is listed as “significant increase”.

As to `CC/C=C\C/C=C\C/C=C\C/C=C\C/C=C\CCCC(=O)OCC` [ethyl-eicospaentaenoic acid], in series [4] (HTLD group), the “day by which milk DPA rose significantly from baseline” value is reported as “three” and the “day by which milk EPA rose significantly from baseline” value is on record as “two”. In series [4] (HTLD group (160 to 40 g/day), peak at day five), the “EPA as a percentage of total fatty acids in milk, peak” value was 1.55 % TFA. Further, the “DPA as a percentage of total fatty acids in milk, peak” value in series [4] (HTLD group, peak at day six) was determined as 0.41 % TFA. Moreover, in series [4] (LTHD group), the “day by which milk DPA rose significantly from baseline” value is recorded as “seven” and the “day by which milk EPA rose significantly from baseline” value is reported as “five”. For the same compound, the “EPA as a percentage of total fatty acids in milk, peak” value in series [4] (LTHD group (40 to 160 g/day), peak at day nine) came out at 1.29 % TFA. In series [4] (LTHD group, peak at day eleven), the “DPA as a percentage of total fatty acids in milk, peak” value is on record as 0.38 % TFA. For the same compound, in series [4] (already significant by day three), the “milkfat stearic acid (C18:0)” value is on record as “dramatic reduction”. For the same compound, the “maximum reduction of % TFA C16:0 in milk” value in series [4] (day nine, across both groups) is on record as 15.44 % of baseline levels. Further, the “% TFA C16:0 in milk” value in series [4] (day nine, across both groups, baseline 36.78) is 31.1 % TFA. In addition, in series [4] (in vivo), the “CLA in milk, increase over baseline levels at maximum” value is 375% and the “CLA in milk, maximum level” value is 4.2 % of total fatty acids. Further, the “CLA in milk, mean increase over baseline levels” value in series [4] (mean) is given as 274%. Further, the DHA in milk result in series [4] (undetectable at baseline, throughout the study) is on record as “remained unchanged”. In series [5] (Day Eleven), the “C:10:C10:1 ratio, % of baseline” value is 106.4 % of baseline; the “C:14:C14:1 ratio, % of baseline” value is 110.6 % of baseline; the “C:16:C16:1 ratio, % of baseline” value is recorded as 113.4 % of baseline; the “C:18:C18:1 ratio, % of baseline” value is on record as 98 % of baseline. Also, in series [5] (Day Eleven), the “C:18:C18:1 ratio in milkfat” value was 0.48, the “C:10:C10:1 ratio in milkfat” value was 13.46, the “C:14:C14:1 ratio in milkfat” value amounted to 16.51 and the “C:16:C16:1 ratio in milkfat” value is 19.67. In series [5] (Day Five), the “C:10:C10:1 ratio, % of baseline” value was 82.5 % of baseline; the “C:14:C14:1 ratio, % of baseline” value was 83.3 % of baseline; the “C:16:C16:1 ratio, % of baseline” value is listed as 90.6 % of baseline; the “C:18:C18:1 ratio, % of baseline” value is reported as 65.3 % of baseline. Besides, in series [5] (Day Five), the “C:18:C18:1 ratio in milkfat” value worked out at 0.32, the “C:14:C14:1 ratio in milkfat” value is 12.44 and the “C:16:C16:1 ratio in milkfat” value amounted to 15.76. For the same compound, the “C:10:C10:1 ratio in milkfat” value in series [5] (Day Five, across both groups) was found to be 10.45.
